Assay results published in patent US9133163B2, “Dihydropyrazole GPR40 modulators” (Bristol-Myers Squibb Company, priority 2012, dated 2015).

Target: hGPR40 (Homo sapiens, UniProt O14842)
Assay: FDSS-based intracellular calcium assay
Assay type: cell-based
Set-up: 3xFLAG; expressed in transfected cells
Details: intracellular Ca2+ response, cells expressing GPR40
Experimental: FDSS-Based Intracellular Calcium Assay
Compounds are dissolved in DMSO and diluted to desired concentrations with assay buffer and added to the cells as 3× solution (20 μL per well). Run fluorescence/luminescence reader FDSS (Hamamatsu) to read intracellular Ca^2+ response.

Sequence of hGPR40 (O14842 whole entry): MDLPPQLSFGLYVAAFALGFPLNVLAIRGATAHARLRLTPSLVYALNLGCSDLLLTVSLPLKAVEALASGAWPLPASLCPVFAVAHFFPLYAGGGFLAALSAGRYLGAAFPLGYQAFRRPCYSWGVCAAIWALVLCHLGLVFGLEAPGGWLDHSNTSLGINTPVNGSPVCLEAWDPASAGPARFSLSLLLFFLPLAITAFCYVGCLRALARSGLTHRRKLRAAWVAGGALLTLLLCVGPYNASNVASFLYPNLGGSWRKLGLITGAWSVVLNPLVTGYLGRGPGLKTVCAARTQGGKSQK

EC50 | Structure (SMILES)
600 nM | CC(C)c1ccc(F)c(N2CCC(Oc3ccc(N4N=C(C(F)(F)F)[C@@H](C)[C@@H]4CC(=O)O)cc3)CC2)c1 [Example 66, 2-((4S,5S)-1-(4-((1-(2-Fluoro-5-isopropylphenyl)piperidin-4-yl)oxy)phenyl)-4-methyl-3-(trifluoromethyl)-4,5-dihydro-1H-pyrazol-5-yl)acetic acid]
1930 nM | C[C@@H]1C(C(F)(F)F)=NN(c2ccc(OC3CCN(c4ccccc4)CC3)cc2)[C@H]1CC(=O)O [Example 72, 2-((4S,5S)-4-Methyl-1-(4-((1-phenylpiperidin-4-yl)oxy)phenyl)-3-(trifluoromethyl)-4,5-dihydro-1H-pyrazol-5-yl)acetic acid]
2120 nM | CC(C)c1cccc(N2CCC(Oc3ccc(N4N=C(C(F)(F)F)[C@@H](C)[C@@H]4CC(=O)O)cc3)CC2)c1 [Example 73, 2-((4S,5S)-1-(4-((1-(3-Isopropylphenyl)piperidin-4-yl)oxy)phenyl)-4-methyl-3-(trifluoromethyl)-4,5-dihydro-1H-pyrazol-5-yl)acetic acid]
2610 nM | C[C@@H]1C(C(F)(F)F)=NN(c2ccc(OC3CCN(c4ccccn4)CC3)cc2)[C@H]1CC(=O)O [Example 74, 2-((4S,5S)-4-Methyl-1-(4-((1-(pyridin-2-yl)piperidin-4-yl)oxy)phenyl)-3-(trifluoromethyl)-4,5-dihydro-1H-pyrazol-5-yl)acetic acid]
7680 nM | C[C@@H]1C(C(F)(F)F)=NN(c2ccc(OC3CCN(c4cccnc4)CC3)cc2)[C@H]1CC(=O)O [Example 75, 2-((4S,5S)-4-Methyl-1-(4-((1-(pyridin-3-yl)piperidin-4-yl)oxy)phenyl)-3-(trifluoromethyl)-4,5-dihydro-1H-pyrazol-5-yl)acetic acid]
649 nM | COc1ccc(Cl)c(N2CCC(Oc3ccc(N4N=C(C(F)(F)F)[C@@H](C)[C@@H]4CC(=O)O)cc3)CC2)n1 [Example 76, 2-((4S,5S)-1-(4-((1-(3-Chloro-6-methoxypyridin-2-yl)piperidin-4-yl)oxy)phenyl)-4-methyl-3-(trifluoromethyl)-4,5-dihydro-1H-pyrazol-5-yl)acetic acid]
1990 nM | COc1cc(Cl)cc(N2CCC(Oc3ccc(N4N=C(C(F)(F)F)[C@@H](C)[C@@H]4CC(=O)O)cc3)CC2)n1 [Example 78, 2-((4S,5S)-1-(4-((1-(4-Chloro-6-methoxypyridin-2-yl)piperidin-4-yl)oxy)phenyl)-4-methyl-3-(trifluoromethyl)-4,5-dihydro-1H-pyrazol-5-yl)acetic acid]
2560 nM | COc1cc(F)cc(N2CCC(Oc3ccc(N4N=C(C(F)(F)F)[C@@H](C)[C@@H]4CC(=O)O)cc3)CC2)n1 [Example 80, 2-((4S,5S)-1-(4-((1-(4-Fluoro-6-methoxypyridin-2-yl)piperidin-4-yl)oxy)phenyl)-4-methyl-3-(trifluoromethyl)-4,5-dihydro-1H-pyrazol-5-yl)acetic acid]
319 nM | COc1cc(N2CC[C@H](Oc3ccc(N4N=C(C(F)(F)F)[C@@H](C)[C@@H]4CC(=O)O)cc3)[C@@H](C)C2)c(Cl)cn1 [Example 81, Isomer 1, 2-((4S,5S)-1-(4-((1-(5-Chloro-2-methoxypyridin-4-yl)-3-methylpiperidin-4-yl)oxy)phenyl)-4-methyl-3-(trifluoromethyl)-4,5-dihydro-1H-pyrazol-5-yl)acetic acid]
760 nM | CCOc1cc(N2CC[C@H](Oc3ccc(N4N=C(C(F)(F)F)[C@@H](C)[C@@H]4CC(=O)O)cc3)[C@@H](C)C2)c(Cl)cn1 [Example 82, 2-((4S,5S)-1-(4-(((3S,4S)-1-(5-Chloro-2-ethoxypyridin-4-yl)-3-methylpiperidin-4-yl)oxy)phenyl)-4-methyl-3-(trifluoromethyl)-4,5-dihydro-1H-pyrazol-5-yl)acetic acid]
224 nM | CCOc1cc(N2CC[C@@H](Oc3ccc(N4N=C(C(F)(F)F)[C@@H](C)[C@@H]4CC(=O)O)cc3)[C@H](C)C2)c(Cl)cn1 [Example 83, 2-((4S,5S)-1-(4-(((3R,4R)-1-(5-Chloro-2-ethoxypyridin-4-yl)-3-methylpiperidin-4-yl)oxy)phenyl)-4-methyl-3-(trifluoromethyl)-4,5-dihydro-1H-pyrazol-5-yl)acetic acid]
2580 nM | CCOc1cc(N2CC[C@H](Oc3ccc(N4N=C(C(F)(F)F)[C@@H](C)[C@@H]4CC(=O)O)cc3)[C@@H](C)C2)c(F)cn1 [Example 84, 2-((4S,5S)-1-(4-(((3S,4S)-1-(2-Ethoxy-5-fluoropyridin-4-yl)-3-methylpiperidin-4-yl)oxy)phenyl)-4-methyl-3-(trifluoromethyl)-4,5-dihydro-1H-pyrazol-5-yl)acetic acid]
277 nM | CCOc1cc(N2CC[C@@H](Oc3ccc(N4N=C(C(F)(F)F)[C@@H](C)[C@@H]4CC(=O)O)cc3)[C@H](C)C2)c(F)cn1 [Example 85, 2-((4S,5S)-1-(4-(((3R,4R)-1-(2-Ethoxy-5-fluoropyridin-4-yl)-3-methylpiperidin-4-yl)oxy)phenyl)-4-methyl-3-(trifluoromethyl)-4,5-dihydro-1H-pyrazol-5-yl)acetic acid]
62 nM | COc1ccc(F)c(N2CCC(Oc3ccc(N4N=C(c5ccc(C#N)cc5)[C@@H](C)[C@@H]4CC(=O)O)cc3)CC2)c1 [Example 91, 2-((4S,5S)-3-(4-Cyanophenyl)-1-(4-((1-(2-fluoro-5-methoxyphenyl)piperidin-4-yl)oxy)phenyl)-4-methyl-4,5-dihydro-1H-pyrazol-5-yl)acetic acid]
139 nM | COC(=O)c1ccc(C2=NN(c3ccc(OC4CCN(c5cc(OC)ccc5F)CC4)cc3)[C@@H](CC(=O)O)[C@@H]2C)cc1 [Example 92, 2-((4S,5S)-1-(4-((1-(2-Fluoro-5-methoxyphenyl)piperidin-4-yl)oxy)phenyl)-3-(4-(methoxycarbonyl)phenyl)-4-methyl-4,5-dihydro-1H-pyrazol-5-yl)acetic acid]
59 nM | CCOc1ccc(F)c(N2CCC(Oc3ccc(N4N=C(c5ccc(C#N)cc5F)[C@@H](C)[C@@H]4CC(=O)O)cc3)CC2)c1 [Example 94, 2-((4S,5S)-3-(4-Cyano-2-fluorophenyl)-1-(4-((1-(5-ethoxy-2-fluorophenyl)piperidin-4-yl)oxy)phenyl)-4-methyl-4,5-dihydro-1H-pyrazol-5-yl)acetic acid]
108 nM | CCOc1ccc(F)c(N2CCC(Oc3ccc(N4N=C(c5ccc(F)cc5)[C@@H](C)[C@@H]4CC(=O)O)cc3)CC2)c1 [Example 95, 2-((4S,5S)-1-(4-((1-(5-Ethoxy-2-fluorophenyl)piperidin-4-yl)oxy)phenyl)-3-(4-fluorophenyl)-4-methyl-4,5-dihydro-1H-pyrazol-5-yl)acetic acid]
190 nM | C[C@@H]1C(C(F)(F)F)=NN(c2ccc(OC3CCN(c4cc(O)ccc4F)CC3)cc2)[C@H]1CC(=O)O [Example 102, 2-((4S,5S)-1-(4-((1-(2-Fluoro-5-hydroxyphenyl)piperidin-4-yl)oxy)phenyl)-4-methyl-3-(trifluoromethyl)-4,5-dihydro-1H-pyrazol-5-yl)acetic acid]
161 nM | COc1ccc(C)c(N2CCC(Oc3ccc(N4N=C(C(F)(F)F)[C@@H](C)[C@@H]4CC(=O)O)cc3)CC2)c1 [Example A2, 2-((4S,5S)-1-(4-(1-(5-Methoxy-2-methylphenyl)piperidin-4-yloxy)phenyl)-4-methyl-3-(trifluoromethyl)-4,5-dihydro-1H-pyrazol-5-yl)acetic acid]
844 nM | COc1cc(N2CC[C@@H](Oc3ccc(N4N=C(C(F)(F)F)[C@@H](C)[C@@H]4CC(=O)O)c(Br)c3)[C@H](C)C2)c(Cl)cn1 [Example A3, 2-((4S,5S)-1-(2-Bromo-4-(((3R,4R)-1-(5-chloro-2-methoxypyridin-4-yl)-3-methylpiperidin-4-yl)oxy)phenyl)-4-methyl-3-(trifluoromethyl)-4,5-dihydro-1H-pyrazol-5-yl)acetic acid]
45 nM | COc1cc(N2CC[C@@H](Oc3ccc(N4N=C(C(F)(F)F)[C@@H](C)[C@@H]4CC(=O)O)cc3Br)[C@H](C)C2)c(Cl)cn1 [Example A4, 2-((4S,5S)-1-(3-Bromo-4-(((3R,4R)-1-(5-chloro-2-methoxypyridin-4-yl)-3-methylpiperidin-4-yl)oxy)phenyl)-4-methyl-3-(trifluoromethyl)-4,5-dihydro-1H-pyrazol-5-yl)acetic acid]

Structure (SMILES) | EC50
COc1cc(N2CCC(Oc3ccc(N4N=C(C(F)(F)F)[C@@H](C)[C@@H]4CC(=O)O)cc3)C(C)C2)c(Cl)cn1 (stereo partly drawn) [Example 81, Isomer 2, 2-((4S,5S)-1-(4-((1-(5-Chloro-2-methoxypyridin-4-yl)-3-methylpiperidin-4-yl)oxy)phenyl)-4-methyl-3-(trifluoromethyl)-4,5-dihydro-1H-pyrazol-5-yl)acetic acid] | 71 nM
